From patent US6201001A, “Imidazole antiproliferative agents” (Abbott Laboratories, priority 1999, dated 2001) come the findings set out here.

Assay [1] relates to human lung large cell carcinoma, MDR negative (NCI-H460) cells. As to the kind of experiment: 48-hour cellular proliferation assay, NCI-H460 cells (sulforhodamine). It counts as cell-based. Particulars: NCI-H460, 48-hour. The method, then:
(§1) Compounds of this invention were tested in a 48-hour cellular proliferation assay which uses human colon adenocarcinoma, MDR positive (HCT-15) cells, and human lung large cell carcinoma, MDR negative (NCI-H460) cells, in the 96-well microtitre format described in Skehan P., et al. New Colorimetric Cytotoxicity Assay for Anticancer Drug Screening. 1990, J. Natl. Cancer Inst. 82:1107-1112, hereby incorporated by reference. Briefly, the wells of a microtitre plate were charged sequentially with cultured cells and compounds of the invention (1.0×10^-4 to 1.0×10^-11 M in 10% DMSO prepared by dissolving compounds of the invention in DMSO and adding 11 μL of the DMSO solution to 100 μL of culture medium for a final DMSO concentration of 10%). Two of the following controls were also present in each microtitre plate: a solvent (DMSO) control without drug that yielded a 0% inhibition level and a trichloroacetic acid-treated well that yielded a 100% inhibition level. The cells were grown in culture (37° C., 5% CO2 atmosphere) for 48 hours then fixed by the addition of trichloroacetic acid. The wells were stained with sulforhodamine, washed with 1% acetic acid, and treated with 0.01M tris buffer (100 μL) to solubilize the adherent dye. The absorbance of the dye solution was measured with a Molecular Devices SpectraMax340 plate reader. The percent inhibition values were obtained by calculating the proportional response of the experimental values to the absorbance values of the controls.

The subject of assay [2] is human colon adenocarcinoma, MDR positive (HCT-15) cells. As to the kind of experiment: 48-hour cellular proliferation assay, HCT-15 cells (sulforhodamine). It counts as cell-based. Particulars: HCT-15, 48-hour. The method, then:
as §1

pIC50: −log10 of the molar value.

By pIC50 is commonly meant the IC50 on a negative log10 scale, so that one unit is a factor of ten. Lower therefore signals a high IC50. With `COc1ccc(-c2c(-c3cc(OC)c(OC)c(OC)c3)ncn2C)cc1N` [Example 1, 2-methoxy-5-(1-methyl-4-(3,4,5-trimethoxyphenyl)-1H-imidazol-5-yl)phenylamine], the pIC50 is 6.77 in assay [1] and 6.66 in assay [2].
Take `COc1ccc(-c2ncn(C)c2-c2cc(OC)c(OC)c(OC)c2)cc1N` [Example 2, 2-methoxy-5-(1-methyl-5-(3,4,5-trimethoxyphenyl)-1H-imidazol-4-yl)phenylamine]: the pIC50 in assay [1] was 7.47; in assay [2], 7.10.
As for `COc1ccc(-c2c(-c3cc(OC)c(OC)c(OC)c3)ncn2C)cc1F` [Example 3, 5-(3-fluoro-4-methoxyphenyl)-1-methyl-4-(3,4,5-trimethoxyphenyl)-1H-imidazole], the pIC50 in assay [1] was 6.04; in assay [2] it was 6.07.
Take `COc1cc(-c2ncn(C)c2-c2ccc(N(C)C)cc2)cc(OC)c1OC` [Example 4, N,N-dimethyl-4-[1-methyl-4-(3,4,5-trimethoxyphenyl)-1H-imidazol-5-yl]aniline]: the negative logarithm of the IC50 (pIC50) was 6.40 in assay [1] and 6.60 in assay [2].
